{"source": "PubChem BioAssay AID2060891", "about": "(Molecular Pharmacology Branch, DTP, NCI, 2025);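 note: spheroids exposed to agents for seven days before the viability readout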;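 for viability, T/C: luminescence used as a proxy for viable cell amount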", "test_system": "K98450-129-R-PDC complex spheroid growth, percent test/control", "assay": "Anticancer human tumor K98450-129-R-PDC patient-derived colon adenocarcinoma cell line growth inhibition [RAS]", "details": "for IC50: curve of first compound; for viability, T/C: stronger effect = lower value", "summary_of_the_method": "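Tumour cells grown as complex spheroids with HUVEC endothelial cells and mesenchymal stem cells, treated with RAS pathway inhibitor combinations. Each agent spans half-log steps from near clinical Cmax, or 10 microM where Cmax is unknown.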", "key": {"[1]": {"details": "second compound 0.000949 µM, first compound 0.0316 µM"}, "[2]": {"details": "second compound 0.000949 µM, first compound 0.1 µM"}, "[3]": {"details": "second compound 0.000949 µM, first compound 0.316 µM"}, "[4]": {"details": "second compound 0.000949 µM, first compound 1 µM"}, "[5]": {"details": "second compound 0.000949 µM, first compound 3.16 µM"}, "[6]": {"details": "second compound 0.000949 µM, first compound 10 µM"}, "[7]": {"details": "second compound 0.003 µM, first compound 0.0316 µM"}, "[8]": {"details": "second compound 0.003 µM, first compound 0.1 µM"}, "[9]": {"details": "second compound 0.003 µM, first compound 0.316 µM"}, "[10]": {"details": "second compound 0.003 µM, first compound 1 µM"}, "[11]": {"details": "second compound 0.003 µM, first compound 3.16 µM"}, "[12]": {"details": "second compound 0.003 µM, first compound 10 µM"}, "[13]": {"details": "second compound 0.00949 µM, first compound 0.0316 µM"}, "[14]": {"details": "second compound 0.00949 µM, first compound 0.1 µM"}, "[15]": {"details": "second compound 0.00949 µM, first compound 0.316 µM"}, "[16]": {"details": "second compound 0.00949 µM, first compound 1 µM"}, "[17]": {"details": "second compound 0.00949 µM, first compound 3.16 µM"}, "[18]": {"details": "second compound 0.00949 µM, first compound 10 µM"}, "[19]": {"details": "second compound 0.03 µM, first compound 0.0316 µM"}, "[20]": {"details": "second compound 0.03 µM, first compound 0.1 µM"}, "[21]": {"details": "second compound 0.03 µM, first compound 0.316 µM"}, "[22]": {"details": "second compound 0.03 µM, first compound 1 µM"}, "[23]": {"details": "second compound 0.03 µM, first compound 3.16 µM"}, "[24]": {"details": "second compound 0.03 µM, first compound 10 µM"}, "[25]": {"details": "second compound 0.0949 µM, first compound 0.0316 µM"}, "[26]": {"details": "second compound 0.0949 µM, first compound 0.1 µM"}, "[27]": {"details": "second compound 0.0949 µM, first compound 0.316 µM"}, "[28]": {"details": "second compound 0.0949 µM, first compound 1 µM"}, "[29]": {"details": "second compound 0.0949 µM, first compound 3.16 µM"}, "[30]": {"details": "second compound 0.0949 µM, first compound 10 µM"}, "[31]": {"details": "second compound 0.3 µM, first compound 0.0316 µM"}, "[32]": {"details": "second compound 0.3 µM, first compound 0.1 µM"}, "[33]": {"details": "second compound 0.3 µM, first compound 0.316 µM"}, "[34]": {"details": "second compound 0.3 µM, first compound 1 µM"}, "[35]": {"details": "second compound 0.3 µM, first compound 3.16 µM"}, "[36]": {"details": "second compound 0.3 µM, first compound 10 µM"}}}
{"smiles": "CC(Nc1ccc2c(c1)OCCn1cc(N3C(=O)OCC3C(F)F)nc1-2)C(N)=O", "note": "(centres undefined) + CCn1c(-c2cccnc2C(C)OC)c2c3cc(ccc31)N1CCOC(CC(NC(=O)C(C(C)C)N(C)C(=O)C3(F)CCN(C(=O)C#CC(C)(C)N(C)C)CC3)C(=O)N3CCCC(N3)C(=O)OCC(C)(C)C2)C1", "values": [{"measurement": "IC50", "setting": "second compound 0.000949 µM", "value": "> 10000", "unit": "nM"}, {"measurement": "IC50", "setting": "second compound 0.003 µM", "value": 829, "unit": "nM"}, {"measurement": "IC50", "setting": "second compound 0.00949 µM", "value": "< 31.6", "unit": "nM"}, {"measurement": "IC50", "setting": "second compound 0.03 µM", "value": "< 31.6", "unit": "nM"}, {"measurement": "IC50", "setting": "second compound 0.0949 µM", "value": "< 31.6", "unit": "nM"}, {"measurement": "IC50", "setting": "second compound 0.3 µM", "value": "< 31.6", "unit": "nM"}, {"measurement": "viability, T/C", "setting": "[1]", "value": 77.4, "unit": "%"}, {"measurement": "viability, T/C", "setting": "[2]", "value": 70.5, "unit": "%"}, {"measurement": "viability, T/C", "setting": "[3]", "value": 72.1, "unit": "%"}, {"measurement": "viability, T/C", "setting": "[4]", "value": 60.8, "unit": "%"}, {"measurement": "viability, T/C", "setting": "[5]", "value": 71.5, "unit": "%"}, {"measurement": "viability, T/C", "setting": "[6]", "value": 51.3, "unit": "%"}, {"measurement": "viability, T/C", "setting": "[7]", "value": 57.7, "unit": "%"}, {"measurement": "viability, T/C", "setting": "[8]", "value": 60.8, "unit": "%"}, {"measurement": "viability, T/C", "setting": "[9]", "value": 51.5, "unit": "%"}, {"measurement": "viability, T/C", "setting": "[10]", "value": 45.2, "unit": "%"}, {"measurement": "viability, T/C", "setting": "[11]", "value": 48.9, "unit": "%"}, {"measurement": "viability, T/C", "setting": "[12]", "value": 34.7, "unit": "%"}, {"measurement": "viability, T/C", "setting": "[13]", "value": 46.6, "unit": "%"}, {"measurement": "viability, T/C", "setting": "[14]", "value": 34.3, "unit": "%"}, {"measurement": "viability, T/C", "setting": "[15]", "value": 35.8, "unit": "%"}, {"measurement": "viability, T/C", "setting": "[16]", "value": 26.9, "unit": "%"}, {"measurement": "viability, T/C", "setting": "[17]", "value": 37.2, "unit": "%"}, {"measurement": "viability, T/C", "setting": "[18]", "value": 23, "unit": "%"}, {"measurement": "viability, T/C", "setting": "[19]", "value": 37.9, "unit": "%"}, {"measurement": "viability, T/C", "setting": "[20]", "value": 38.6, "unit": "%"}, {"measurement": "viability, T/C", "setting": "[21]", "value": 32.4, "unit": "%"}, {"measurement": "viability, T/C", "setting": "[22]", "value": 25, "unit": "%"}, {"measurement": "viability, T/C", "setting": "[23]", "value": 27.3, "unit": "%"}, {"measurement": "viability, T/C", "setting": "[24]", "value": 21.8, "unit": "%"}, {"measurement": "viability, T/C", "setting": "[25]", "value": 34.4, "unit": "%"}, {"measurement": "viability, T/C", "setting": "[26]", "value": 29.4, "unit": "%"}, {"measurement": "viability, T/C", "setting": "[27]", "value": 29.9, "unit": "%"}, {"measurement": "viability, T/C", "setting": "[28]", "value": 24.2, "unit": "%"}, {"measurement": "viability, T/C", "setting": "[29]", "value": 24, "unit": "%"}, {"measurement": "viability, T/C", "setting": "[30]", "value": 19.4, "unit": "%"}, {"measurement": "viability, T/C", "setting": "[31]", "value": 34.6, "unit": "%"}, {"measurement": "viability, T/C", "setting": "[32]", "value": 27, "unit": "%"}, {"measurement": "viability, T/C", "setting": "[33]", "value": 31.1, "unit": "%"}, {"measurement": "viability, T/C", "setting": "[34]", "value": 23.6, "unit": "%"}, {"measurement": "viability, T/C", "setting": "[35]", "value": 27.5, "unit": "%"}, {"measurement": "viability, T/C", "setting": "[36]", "value": 18.9, "unit": "%"}]}
{"smiles": "C[C@@H](NC(=O)c1ncnc(N)c1Cl)c1ncc(C(=O)Nc2cc(C(F)(F)F)c(Cl)cn2)s1", "note": "+ CCn1c(-c2cccnc2C(C)OC)c2c3cc(ccc31)N1CCOC(CC(NC(=O)C(C(C)C)N(C)C(=O)C3(F)CCN(C(=O)C#CC(C)(C)N(C)C)CC3)C(=O)N3CCCC(N3)C(=O)OCC(C)(C)C2)C1", "values": [{"measurement": "IC50", "setting": "second compound 0.000949 µM", "value": "> 10000", "unit": "nM"}, {"measurement": "IC50", "setting": "second compound 0.003 µM", "value": "> 10000", "unit": "nM"}, {"measurement": "IC50", "setting": "second compound 0.00949 µM", "value": "> 10000", "unit": "nM"}, {"measurement": "IC50", "setting": "second compound 0.03 µM", "value": "< 31.6", "unit": "nM"}, {"measurement": "IC50", "setting": "second compound 0.0949 µM", "value": "< 31.6", "unit": "nM"}, {"measurement": "IC50", "setting": "second compound 0.3 µM", "value": "< 31.6", "unit": "nM"}, {"measurement": "viability, T/C", "setting": "[1]", "value": 87.9, "unit": "%"}, {"measurement": "viability, T/C", "setting": "[2]", "value": 87.2, "unit": "%"}, {"measurement": "viability, T/C", "setting": "[3]", "value": 87, "unit": "%"}, {"measurement": "viability, T/C", "setting": "[4]", "value": 70.2, "unit": "%"}, {"measurement": "viability, T/C", "setting": "[5]", "value": 54.4, "unit": "%"}, {"measurement": "viability, T/C", "setting": "[6]", "value": 61.5, "unit": "%"}, {"measurement": "viability, T/C", "setting": "[7]", "value": 57.9, "unit": "%"}, {"measurement": "viability, T/C", "setting": "[8]", "value": 64.3, "unit": "%"}, {"measurement": "viability, T/C", "setting": "[9]", "value": 63.5, "unit": "%"}, {"measurement": "viability, T/C", "setting": "[10]", "value": 61.6, "unit": "%"}, {"measurement": "viability, T/C", "setting": "[11]", "value": 66.2, "unit": "%"}, {"measurement": "viability, T/C", "setting": "[12]", "value": 53.7, "unit": "%"}, {"measurement": "viability, T/C", "setting": "[13]", "value": 57.8, "unit": "%"}, {"measurement": "viability, T/C", "setting": "[14]", "value": 55, "unit": "%"}, {"measurement": "viability, T/C", "setting": "[15]", "value": 54.5, "unit": "%"}, {"measurement": "viability, T/C", "setting": "[16]", "value": 55.3, "unit": "%"}, {"measurement": "viability, T/C", "setting": "[17]", "value": 59.2, "unit": "%"}, {"measurement": "viability, T/C", "setting": "[18]", "value": 48.6, "unit": "%"}, {"measurement": "viability, T/C", "setting": "[19]", "value": 40.3, "unit": "%"}, {"measurement": "viability, T/C", "setting": "[20]", "value": 44.5, "unit": "%"}, {"measurement": "viability, T/C", "setting": "[21]", "value": 53.6, "unit": "%"}, {"measurement": "viability, T/C", "setting": "[22]", "value": 61.6, "unit": "%"}, {"measurement": "viability, T/C", "setting": "[23]", "value": 54.1, "unit": "%"}, {"measurement": "viability, T/C", "setting": "[24]", "value": 46.9, "unit": "%"}, {"measurement": "viability, T/C", "setting": "[25]", "value": 39.2, "unit": "%"}, {"measurement": "viability, T/C", "setting": "[26]", "value": 40.5, "unit": "%"}, {"measurement": "viability, T/C", "setting": "[27]", "value": 53.3, "unit": "%"}, {"measurement": "viability, T/C", "setting": "[28]", "value": 55, "unit": "%"}, {"measurement": "viability, T/C", "setting": "[29]", "value": 62.3, "unit": "%"}, {"measurement": "viability, T/C", "setting": "[30]", "value": 49.9, "unit": "%"}, {"measurement": "viability, T/C", "setting": "[31]", "value": 32.4, "unit": "%"}, {"measurement": "viability, T/C", "setting": "[32]", "value": 43.9, "unit": "%"}, {"measurement": "viability, T/C", "setting": "[33]", "value": 35.2, "unit": "%"}, {"measurement": "viability, T/C", "setting": "[34]", "value": 53.7, "unit": "%"}, {"measurement": "viability, T/C", "setting": "[35]", "value": 56.3, "unit": "%"}, {"measurement": "viability, T/C", "setting": "[36]", "value": 39.3, "unit": "%"}]}
